The record followed here is US20260125346A1, “Isoquinolinone Derivatives and 4H-Quinolizinone Derivatives and Pharmaceutical Compositions Thereof for the Treatment of Disease” (BeOne Medicines I GmbH, priority 2023, published 2026).

Each structure is given as a SMILES string. Bounds are passed on as bounds.

Experiment [1] has as its system PI3Kα H1047R mutated cell line T-47D. Put plainly: Phospho-AKT (Ser473) Inhibition Assay (HTRF), T-47D. Format: cell-based. To be noted: for IC50: Homo sapiens, T47D, T-47D, 1 hour treatment, read-out: p-AKT Inhibition assay (S473) IC50 T-47D; for Selectivity: SK-BR-3/T-47D (p-AKT): p-AKT (S473) IC50 ratio. In short, it runs like this: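 Cells seeded overnight in insulin-supplemented MEM, then treated 1 h with 11-point 1:3 compound dilutions (10 μM to 0.1 nM final, 0.1% DMSO). Lysates assayed for phospho-AKT Ser473 by HTRF; IC50 from 4-parameter logistic fit, normalised to DMSO (max) and 10 μM GDC0077 (min).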
A general note: Time-resolved FRET reads energy transfer from a long-lived donor to a nearby acceptor.

The subject of experiment [2] is PI3Kα H1047R mutated cell line T-47D cells. Put plainly: Cell Proliferation Assay (CellTiter-Glo), T-47D. In kind it is cell-based. The settings on record: for IC50: Homo sapiens, T47D, 72 h, T-47D, 3 days treatment; for Selectivity: SK-BR-3/T-47D (cell proliferation): cell proliferation IC50 ratio. The essentials: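 T-47D cells seeded overnight at 3×10^3/well, then exposed 3 days to 9-point 1:3 dilutions, final […] to 1 nM in 0.1% DMSO. CellTiter-Glo luminescence; relative IC50 from percent inhibition versus medium-only and 0.1% DMSO controls, 4-parameter logistic fit.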

A further experiment has as its system WT cell line SK-BR-3. Nature of the experiment: Phospho-AKT (Ser473) Inhibition Assay (HTRF), SK-BR-3. The settings on record: Homo sapiens; SK-BR-3, 1 hour treatment; read-out: p-AKT Inhibition assay (S473) IC50 SK-BR-3. In kind it is cell-based. The essentials:
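SK-BR-3 (PI3Kα WT) cells seeded overnight in MEM with insulin, then treated 1 h with 11-point 1:3 dilutions (10 μM to 0.1 nM, 0.1% DMSO). Lysates read for phospho-AKT Ser473 by HTRF after 4 h antibody incubation at room temperature. IC50 from 4-parameter fit, % inhibition normalized to DMSO (max) and 10 μM GDC0077 (min).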

In experiment [3] the target is PI3Kα (p110/p85) kinase (wild type, "WT") (Homo sapiens, UniProt P42336). Put plainly: PI3Kα (p110/p85) kinase ADP-Glo Assay. Format: biochemical. The settings on record: 25 uM ATP. The essentials: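 IC50 values come from a four-parameter logistic fit of ADP-Glo chemiluminescence, reflecting ADP formed. Enzyme, lipid substrate and […] compound were preincubated 30 min at room temperature, then 25 µM ATP was added for a 120 min reaction in 50 mM HEPES pH7.5, 3 mM MgCl2.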
(In ADP-Glo the light output rises with the ADP produced.)

Sequence of PI3Kα (p110/p85) kinase (wild type, "WT") (P42336 whole entry): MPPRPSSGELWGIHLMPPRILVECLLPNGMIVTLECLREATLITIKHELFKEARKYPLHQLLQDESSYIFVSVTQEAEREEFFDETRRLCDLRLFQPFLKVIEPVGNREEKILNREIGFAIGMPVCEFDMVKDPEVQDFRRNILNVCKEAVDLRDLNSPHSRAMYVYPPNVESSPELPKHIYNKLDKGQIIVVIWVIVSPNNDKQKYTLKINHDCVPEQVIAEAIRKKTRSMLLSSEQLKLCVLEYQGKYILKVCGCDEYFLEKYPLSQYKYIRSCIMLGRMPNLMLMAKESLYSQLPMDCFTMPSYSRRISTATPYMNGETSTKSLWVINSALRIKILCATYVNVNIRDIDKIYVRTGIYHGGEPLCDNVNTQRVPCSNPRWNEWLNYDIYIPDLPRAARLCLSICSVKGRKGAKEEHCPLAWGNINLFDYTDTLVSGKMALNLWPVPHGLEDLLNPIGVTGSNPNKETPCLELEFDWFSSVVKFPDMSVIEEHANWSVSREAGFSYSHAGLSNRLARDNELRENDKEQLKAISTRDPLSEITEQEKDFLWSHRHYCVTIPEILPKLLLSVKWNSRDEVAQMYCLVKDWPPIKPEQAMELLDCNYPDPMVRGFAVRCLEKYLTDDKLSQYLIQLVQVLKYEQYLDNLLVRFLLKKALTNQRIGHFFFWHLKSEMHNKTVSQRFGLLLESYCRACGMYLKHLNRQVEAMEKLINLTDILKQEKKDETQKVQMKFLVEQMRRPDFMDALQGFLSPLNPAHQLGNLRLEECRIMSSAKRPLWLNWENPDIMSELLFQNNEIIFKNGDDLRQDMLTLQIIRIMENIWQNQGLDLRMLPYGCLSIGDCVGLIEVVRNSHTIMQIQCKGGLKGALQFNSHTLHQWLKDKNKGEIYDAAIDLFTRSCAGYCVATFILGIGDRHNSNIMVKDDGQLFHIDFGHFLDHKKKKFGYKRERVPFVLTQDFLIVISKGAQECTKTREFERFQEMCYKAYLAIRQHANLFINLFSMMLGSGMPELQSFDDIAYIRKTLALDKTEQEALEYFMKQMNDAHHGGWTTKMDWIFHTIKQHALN
Sequence of PI3Kα (p110/p85) kinase (wild type, "WT") (P27986 whole entry partner): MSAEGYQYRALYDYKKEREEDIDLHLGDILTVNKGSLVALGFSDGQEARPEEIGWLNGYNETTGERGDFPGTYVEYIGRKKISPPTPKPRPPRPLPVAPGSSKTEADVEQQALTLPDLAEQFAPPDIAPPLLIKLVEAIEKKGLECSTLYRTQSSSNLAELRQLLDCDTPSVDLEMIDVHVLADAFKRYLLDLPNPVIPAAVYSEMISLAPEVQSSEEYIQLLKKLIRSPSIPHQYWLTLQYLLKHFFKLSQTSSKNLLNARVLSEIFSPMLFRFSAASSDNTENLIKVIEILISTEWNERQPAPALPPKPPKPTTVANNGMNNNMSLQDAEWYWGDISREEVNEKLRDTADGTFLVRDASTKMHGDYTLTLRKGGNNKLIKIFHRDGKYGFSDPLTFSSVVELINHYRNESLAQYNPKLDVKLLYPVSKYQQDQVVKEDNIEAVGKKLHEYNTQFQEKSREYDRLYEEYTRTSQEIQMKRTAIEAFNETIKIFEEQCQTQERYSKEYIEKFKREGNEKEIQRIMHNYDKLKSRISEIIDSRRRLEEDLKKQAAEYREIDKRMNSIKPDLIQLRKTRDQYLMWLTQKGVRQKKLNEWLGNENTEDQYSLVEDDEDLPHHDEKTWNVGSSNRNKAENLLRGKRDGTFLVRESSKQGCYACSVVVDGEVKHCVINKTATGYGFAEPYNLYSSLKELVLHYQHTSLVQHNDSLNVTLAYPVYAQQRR

Usually IC50 stands for the midpoint of a concentration-inhibition curve. As for `Cc1cc(C(C)Nc2ccccc2C(=O)O)c2cc(C3=CCN(c4ccccc4)CC3)n(C)c(=O)c2c1` (centres unmarked) [Example 46, 2-((1-(2,7-dimethyl-1-oxo-3-(1-phenyl-1,2,3,6-tetrahydropyridin-4-yl)-1,2-dihydroisoquinolin-5-yl)ethyl)amino)benzoic acid], the IC50 turned out to be 0.0924 µM in experiment [1], 0.21 µM in experiment [2], 5.07 µM in the experiment on WT cell line SK-BR-3 and 11.1 µM in experiment [3]. Moreover, the “Selectivity: SK-BR-3/T-47D (p-AKT)” value in experiment [1] worked out at 54.8. The “Selectivity: SK-BR-3/T-47D (cell proliferation)” value in experiment [2] is greater than 48.

Take `Cc1cc(C(C)Nc2cc3ccsc3cc2C(=O)O)c2cc(-c3ccccc3)n(C)c(=O)c2c1` (centres unmarked) [Example 47, 5-((1-(2,7-dimethyl-1-oxo-3-phenyl-1,2-dihydroisoquinolin-5-yl)ethyl)amino)benzo[b]thiophene-6-carboxylic acid]: the 50% inhibitory concentration (IC50) in experiment [1] was 0.0572 µM; in experiment [2], greater than 10 µM; in the experiment with WT cell line SK-BR-3, greater than 10 µM; in experiment [3], 14.3 µM. Besides, in experiment [1], the “Selectivity: SK-BR-3/T-47D (p-AKT)” value is recorded as greater than 175.

For the molecule `Cc1cc(C(C)Nc2c(C(=O)O)sc3ccccc23)c2cc(-c3ccccc3)n(C)c(=O)c2c1` (centres unmarked) [Example 48, 3-((1-(2,7-dimethyl-1-oxo-3-phenyl-1,2-dihydroisoquinolin-5-yl)ethyl)amino)benzo[b]thiophene-2-carboxylic acid], the half-maximal inhibitory concentration (IC50) is 0.632 µM in experiment [1], greater than 10 µM in experiment [2], 3.79 µM with WT cell line SK-BR-3 and 5.16 µM in experiment [3]. In addition, in experiment [1], the “Selectivity: SK-BR-3/T-47D (p-AKT)” value is recorded as 6.0.

On to `Cc1cc(C(C)Nc2ccccc2C(=O)O)c2cc(-c3ccc(C(F)(F)F)cc3)n(C)c(=O)c2c1` (centres unmarked) [Example 49, 2-((1-(2,7-dimethyl-1-oxo-3-(4-(trifluoromethyl)phenyl)-1,2-dihydroisoquinolin-5-yl)ethyl)amino)benzoic acid], for which the IC50 in experiment [1] was 0.0892 µM; in experiment [2], 0.986 µM; with WT cell line SK-BR-3 it was 4.52 µM; in experiment [3] it was 9.53 µM. Also, the “Selectivity: SK-BR-3/T-47D (p-AKT)” value in experiment [1] worked out at 50.7. In addition, the “Selectivity: SK-BR-3/T-47D (cell proliferation)” value in experiment [2] is greater than 10.

Take `Cc1cc(C(C)Nc2ccccc2C(=O)O)c2cc(-c3cccc(C(F)(F)F)c3)n(C)c(=O)c2c1` (centres unmarked) [Example 50, 2-((1-(2,7-dimethyl-1-oxo-3-(3-(trifluoromethyl)phenyl)-1,2-dihydroisoquinolin-5-yl)ethyl)amino)benzoic acid]: the IC50 in experiment [1] worked out at 0.0866 µM; in experiment [2] it was 3.23 µM; in the experiment on WT cell line SK-BR-3 it was 6.85 µM; in experiment [3] it was 10.4 µM. In addition, the “Selectivity: SK-BR-3/T-47D (p-AKT)” value in experiment [1] is recorded as 79.1. In addition, the “Selectivity: SK-BR-3/T-47D (cell proliferation)” value in experiment [2] is greater than 3.1.

As to `Cc1cc(C(C)Nc2ccccc2C(=O)O)c2cc(-c3ccc(C(C)(C)O)cc3)n(C)c(=O)c2c1` (centres unmarked) [Example 51, 2-((1-(3-(4-(2-hydroxypropan-2-yl)phenyl)-2,7-dimethyl-1-oxo-1,2-dihydroisoquinolin-5-yl)ethyl)amino)benzoic acid], the IC50 in experiment [1] was found to be 0.167 µM; in experiment [2] it was 0.0945 µM; with WT cell line SK-BR-3, 6.45 µM; in experiment [3], 10.4 µM. Besides, the “Selectivity: SK-BR-3/T-47D (p-AKT)” value in experiment [1] turned out to be 38.7. Also, the “Selectivity: SK-BR-3/T-47D (cell proliferation)” value in experiment [2] is given as greater than 106.

`CC#Cc1ccc(-c2cc3c(C(C)Nc4ccccc4C(=O)O)cc(C)cc3c(=O)n2C)cc1` (centres unmarked) [Example 52, 2-((1-(2,7-dimethyl-1-oxo-3-(4-(prop-1-yn-1-yl)phenyl)-1,2-dihydroisoquinolin-5-yl)ethyl)amino)benzoic acid]: the IC50 in experiment [1] stood at 0.0756 µM; in experiment [2], 0.707 µM; in the experiment with WT cell line SK-BR-3 it was 7.19 µM; in experiment [3], 9.45 µM. For the same molecule, the “Selectivity: SK-BR-3/T-47D (p-AKT)” value in experiment [1] was 95.1. Besides, the “Selectivity: SK-BR-3/T-47D (cell proliferation)” value in experiment [2] is listed as greater than 14.

On to `Cc1cc(C(C)Nc2ccccc2C(=O)O)c2cc(-c3ccc4c(c3)C3CC3O4)n(C)c(=O)c2c1` (centres unmarked) [Example 53, 2-((1-(3-(1a,6b-dihydro-1H-cyclopropa[b]benzofuran-5-yl)-2,7-dimethyl-1-oxo-1,2-dihydroisoquinolin-5-yl)ethyl)amino)benzoic acid], for which the IC50 came to 0.0447 µM in experiment [1], 0.815 µM in experiment [2], 2.53 µM in the experiment with WT cell line SK-BR-3 and 4.84 µM in experiment [3]. For the same molecule, the “Selectivity: SK-BR-3/T-47D (p-AKT)” value in experiment [1] was found to be 56.6. Moreover, the “Selectivity: SK-BR-3/T-47D (cell proliferation)” value in experiment [2] is on record as greater than 12.

Take `Cc1cc(C(C)Nc2ccccc2C(=O)O)c2cc(-c3ccc(C(C)(C)O)nc3)n(C)c(=O)c2c1` (centres unmarked) [Example 55, 2-((1-(3-(6-(2-hydroxypropan-2-yl)pyridin-3-yl)-2,7-dimethyl-1-oxo-1,2-dihydroisoquinolin-5-yl)ethyl)amino)benzoic acid]: the IC50 in experiment [1] was 1.56 µM; in experiment [2], 0.296 µM; in the experiment on WT cell line SK-BR-3 it was greater than 10 µM; in experiment [3] it was 26 µM. The “Selectivity: SK-BR-3/T-47D (p-AKT)” value in experiment [1] was greater than 6.4. Moreover, in experiment [2], the “Selectivity: SK-BR-3/T-47D (cell proliferation)” value was greater than 34.

With `Cc1cc([C@@H](C)Nc2ccccc2C(=O)O)c2cc(-c3ccc(C(C)(C)O)nc3)n(C)c(=O)c2c1` [Example 56, (R)-2-((1-(3-(6-(2-hydroxypropan-2-yl)pyridin-3-yl)-2,7-dimethyl-1-oxo-1,2-dihydroisoquinolin-5-yl)ethyl)amino)benzoic acid], the half-inhibitory concentration (IC50) was 0.512 µM in experiment [1], 0.0963 µM in experiment [2], greater than 10 µM in the experiment on WT cell line SK-BR-3 and 17.1 µM in experiment [3]. Further, the “Selectivity: SK-BR-3/T-47D (p-AKT)” value in experiment [1] is recorded as greater than 19.55. Also, in experiment [2], the “Selectivity: SK-BR-3/T-47D (cell proliferation)” value is reported as greater than 104.

As for `Cc1cc([C@H](C)Nc2ccccc2C(=O)O)c2cc(-c3ccc(C(C)(C)O)nc3)n(C)c(=O)c2c1` [Example 57, (S)-2-((1-(3-(6-(2-hydroxypropan-2-yl)pyridin-3-yl)-2,7-dimethyl-1-oxo-1,2-dihydroisoquinolin-5-yl)ethyl)amino)benzoic acid], the 50% inhibitory concentration (IC50) was greater than 10 µM in experiment [1], greater than 10 µM in experiment [2], greater than 10 µM with WT cell line SK-BR-3 and 88.4 µM in experiment [3].

Regarding `COc1ncc(-c2cc3c(C(C)Nc4ccccc4C(=O)O)cc(C)cc3c(=O)n2C)cc1F` (centres unmarked) [Example 58, 2-((1-(3-(5-fluoro-6-methoxypyridin-3-yl)-2,7-dimethyl-1-oxo-1,2-dihydroisoquinolin-5-yl)ethyl)amino)benzoic acid], the half-maximal inhibitory concentration (IC50) was 0.22 µM in experiment [1], 0.351 µM in experiment [2], 3.16 µM in the experiment with WT cell line SK-BR-3 and 9.99 µM in experiment [3]. Further, in experiment [1], the “Selectivity: SK-BR-3/T-47D (p-AKT)” value is given as 14.3. For the same molecule, in experiment [2], the “Selectivity: SK-BR-3/T-47D (cell proliferation)” value is greater than 29.

Consider `COc1ncc(-c2cc3c([C@@H](C)Nc4ccccc4C(=O)O)cc(C)cc3c(=O)n2C)cc1F` [Example 59, (R)-2-((1-(3-(5-fluoro-6-methoxypyridin-3-yl)-2,7-dimethyl-1-oxo-1,2-dihydroisoquinolin-5-yl)ethyl)amino)benzoic acid], for which the IC50 in experiment [1] was 0.0815 µM; in experiment [2] it was 0.0931 µM; with WT cell line SK-BR-3 it was greater than 10 µM; in experiment [3], 4.31 µM. Moreover, the “Selectivity: SK-BR-3/T-47D (p-AKT)” value in experiment [1] is greater than 123. Moreover, in experiment [2], the “Selectivity: SK-BR-3/T-47D (cell proliferation)” value is recorded as greater than 107.

Turning to `Cc1cc(C(C)Nc2ccccc2C(=O)O)c2cc(-c3cncnc3)n(C)c(=O)c2c1` (centres unmarked) [Example 61, 2-((1-(2,7-dimethyl-1-oxo-3-(pyrimidin-5-yl)-1,2-dihydroisoquinolin-5-yl)ethyl)amino)benzoic acid], the 50% inhibitory concentration (IC50) in experiment [1] was 1.4 µM; in experiment [2], 0.341 µM; with WT cell line SK-BR-3, greater than 10 µM; in experiment [3], 19.5 µM. In experiment [1], the “Selectivity: SK-BR-3/T-47D (p-AKT)” value is given as greater than 7.15. Besides, the “Selectivity: SK-BR-3/T-47D (cell proliferation)” value in experiment [2] was greater than 29.

For `Cc1cc(C(C)Nc2ccccc2C(=O)O)c2cc(-c3ccc(C4(O)CC4)cc3)n(C)c(=O)c2c1` (centres unmarked) [Example 62, 2-((1-(3-(4-(1-hydroxycyclopropyl)phenyl)-2,7-dimethyl-1-oxo-1,2-dihydroisoquinolin-5-yl)ethyl)amino)benzoic acid], the IC50 in experiment [1] was determined as 0.13 µM; in experiment [2] it was 0.118 µM; in the experiment with WT cell line SK-BR-3, 2.97 µM; in experiment [3] it was 4.73 µM. Also, the “Selectivity: SK-BR-3/T-47D (p-AKT)” value in experiment [1] was 22.9. In addition, the “Selectivity: SK-BR-3/T-47D (cell proliferation)” value in experiment [2] is greater than 85.

As for `Cc1cc(C(C)Nc2ccccc2C(=O)O)c2cc(-c3ccc(F)cc3)n(CC#N)c(=O)c2c1` (centres unmarked) [Example 63, 2-((1-(2-(cyanomethyl)-3-(4-fluorophenyl)-7-methyl-1-oxo-1,2-dihydroisoquinolin-5-yl)ethyl)amino)benzoic acid], the half-maximal inhibitory concentration (IC50) worked out at 0.0573 µM in experiment [1], 0.205 µM in experiment [2], 4.77 µM with WT cell line SK-BR-3 and 6.14 µM in experiment [3]. Besides, the “Selectivity: SK-BR-3/T-47D (p-AKT)” value in experiment [1] was 83.3. Further, in experiment [2], the “Selectivity: SK-BR-3/T-47D (cell proliferation)” value is greater than 49.
